# US20090105172A1, “Stabilized Aptamers to PSMA and Their Use as Prostate Cancer Therapeutics” (priority 2005, published 2009)
# What was measured:
# [1] = system: LNCaP cells (PSMA+); test: LNCaP FACS binding assay with fluorescein-labeled aptamers; type: cell-based; settings: relative to parent A9
# Experimental: To prepare aptamers for the FACS assay, PSMA aptamers were serially diluted (0-1 uM) in FACS buffer (1×DPBS w/Ca^++/Mg^++ (Gibco, Carlsbad, Calif.) supplemented with 10 mg/mL salmon sperm DNA & 0.2% Na Azide), in a V-bottom 96 well plate, at the concentrations to be tested. LNCaP and PC-3 cells (ATCC, Manassas, Va.) were harvested with trypsin, and 200,000 cells/well were counted, washed once with 1×DPBS (with Ca^++ and Mg^+) and resuspended in 200 μl of FACS Buffer. The 200 μl of cells in FACS buffer were added to individual wells of a new 96 well plate, pelleted by centrifugation (1300 rpm for 5 minutes), and resuspended in 100 μl of the appropriate concentration of diluted aptamer. FACS buffer, a-PSMA antibody (3C6) (Northwest Biotherapeutics, Bothell, Wash., Cat #: 60-5002) and an irrelevant fluorescein isothiocyanate (“FITC”) mouse IgG1 isotype control antibody (BD Pharmingen, San Diego, Calif., Cat#: 554679) were used as controls. The wells of aptamer/cell mixture were incubated at room temperature for 20-30 minutes.
# After incubation, 180 μl of FACS buffer (plus 10 mg/mL ssDNA, and 0.2% Na Azide) was added to each well to quench the reaction and cells were pelleted by centrifugation.
# Anti-fluorescein/Oregon Green®, rabbit IgG fraction, Alexa Fluor® 488 conjugate (Molecular Probes, Eugene, Oreg., Cat#: A11090) was diluted 1:100 in FACS buffer (100 μl/well) as the secondary antibody for the aptamer-FITC conjugates and FITC-mouse IgG isotype control. FITC Rat anti-mouse IgG1 (A85-1) (BD Pharmingen, San Diego, Calif., Cat#: 553443) was diluted in 1:100 in FACS Buffer as the secondary for the α-PSMA antibody. After centrifugation, the cell pellets were resuspended in 100 μl of the appropriate diluted secondary antibody, and incubated 10 minutes at room temperature. After incubation, 180 μl of FACS buffer was added to each well to quench the reaction, and cells were pelleted by centrifugation.
# A tertiary antibody which recognizes the Alexa Fluor® 488 goat anti-rabbit IgG was prepared to further amplify the Alexa Fluor signal. Alexa Fluor® 488 goat anti-rabbit IgG (H+ L) (Molecular Probes, Eugene, Oreg., Cat#: A11034) was diluted 1:100 in FACS buffer, and the pelleted cells were resupsended in 100 μl of the tertiary antibody and incubated for 10 minutes at room temperature. […]
# Cell samples were analyzed on a FACS Scan machine (Becton Dickinson, San Jose, Calif.) under the following parameters: FSC/SSC, FL-1/FSC, FL-3/FSC. The unstained and/or isotype controls were used to establish gating parameters, and the data was analyzed using Cell Quest Pro software version 5.1.1 (Becton Dickinson Immunocytometry Systems, San Jose, Calif.).
# [2] = target: T1, ECD PSMA (Homo sapiens, UniProt Q04609); test: Dot blot binding assay (nitrocellulose filter) with purified ECD PSMA; settings: A9 minimer, without tRNA
# T1 construct: vector-derived N-terminal linker […]; made in house; host or cells: 293 Freestyle cells, pSecTag2B vector
# T1 sequence (Q04609 with tags, fused parts or gaps): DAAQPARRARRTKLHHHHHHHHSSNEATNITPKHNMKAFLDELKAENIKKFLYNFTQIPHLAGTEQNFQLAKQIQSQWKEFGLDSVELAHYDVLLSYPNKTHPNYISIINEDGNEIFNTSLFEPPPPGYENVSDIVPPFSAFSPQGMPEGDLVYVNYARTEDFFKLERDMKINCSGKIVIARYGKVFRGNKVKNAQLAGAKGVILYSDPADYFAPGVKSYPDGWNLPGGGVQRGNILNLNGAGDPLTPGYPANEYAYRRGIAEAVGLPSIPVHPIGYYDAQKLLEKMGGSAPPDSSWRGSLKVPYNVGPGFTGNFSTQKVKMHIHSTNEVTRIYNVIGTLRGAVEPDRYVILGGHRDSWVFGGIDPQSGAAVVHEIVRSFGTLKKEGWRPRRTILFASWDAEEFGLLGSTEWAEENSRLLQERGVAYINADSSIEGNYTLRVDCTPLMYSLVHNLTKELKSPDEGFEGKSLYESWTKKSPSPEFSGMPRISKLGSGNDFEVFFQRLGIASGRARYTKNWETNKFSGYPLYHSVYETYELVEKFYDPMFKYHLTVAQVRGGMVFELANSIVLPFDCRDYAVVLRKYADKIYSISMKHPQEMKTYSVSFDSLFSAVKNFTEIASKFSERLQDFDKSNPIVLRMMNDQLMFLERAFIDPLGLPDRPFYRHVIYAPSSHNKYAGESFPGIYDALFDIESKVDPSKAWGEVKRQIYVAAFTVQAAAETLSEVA
# Excerpt: Protein Purification of ECD of PSMA: An I.M.A.G.E. clone (5202715) encoding full length recombinant human PSMA was purchased from Open Biosystems (Clone EHS1001-18533, Huntsville, Ala.). PCR was used to amplify the extracellular portion of the full length clone. An oligo with an N-terminal histidine tag was designed to engineer a construct which lacks the transmembrane domain residues 1-44. The his-tagged extracellular domain (ECD) was subcloned into the pSecTag2B expression vector (Invitrogen, Carlsbad, Calif.). The ECD of PSMA was purified in house from transfected 293 Freestyle cells (ATCC, Manassas, Va.). The amino acid sequence of the expressed protein comprising an N-terminal linker sequence of […] followed by eight Histidines is listed below: […] VSDr[…]a[…]r[…]rYV […] (SEQ ID NO 5)
# Dot Blot Binding Analysis. Dot blot binding assays were performed throughout the selections to monitor the protein binding affinity of the pools. For initial pool screening, trace ^32P-labeled pool RNA was combined with PSMA and incubated at room temperature for 30 min in 1×SHMCK buffer pH 7.4 (20 mM Hepes pH 7.4, 120 mM NaCl, 5 mM KCl, 1 mM MgCl2, 1 mM CaCl2) plus 0.1 mg/mL tRNA in a final volume of 30 μl. The mixture was applied to a dot blot apparatus (Schleicher and Schuell Minifold-1 Dot Blot, Acrylic, Keene, N.H.), assembled (from top to bottom) with nitrocellulose, nylon, and gel blot membranes. RNA that is bound to protein is captured on the nitrocellulose filter; whereas the non-protein bound RNA is captured on the nylon filter. […] The Round 9 pool was cloned and screened in a single point dot blot assay using 100 nM PSMA (0 nM PSMA was used as a negative control). Clone transcripts were 5′ end labeled with ^32-P ATP. Likely binders were than assayed for KD determination by the blot assay conditions described directly above, but without tRNA, using an 8 point PSMA titration with a constant RNA concentration. […] Both of the clones screened were unique sequences in the Round 9 selection pool.
# In order to identify the core structural elements required for ARC955 binding to PSMA, the 3′-boundaries of the clone was determined through alkaline hydrolysis. The parent RNA transcript was labeled at the 5′-end with γ-^32P ATP and T4 polynucleotide kinase. Radiolabeled ligands were subjected to partial alkaline hydrolysis and then selectively bound in solution to ECD PSMA (purified in house) at 100 nM before being passed through nitrocellulose filters (Centrex MF 1.5 mL, 0.45 μm, Schleicher & Schuell, Keene N.H.). Retained oligonucleotides were resolved on 8% denaturing polyacrylamide gels. The smallest oligonucleotide bound to PSMA defined the 3′-boundary. On the basis of the boundary experiments as well as visual inspection of predicted folds, truncated constructs were synthesized. Clones were then assayed by dot blot as previously described to determine their KD. […] The binding curve for ARC1091 in the dot blot assay is depicted in FIG. 5A, and the predicted secondary structure of ARC1091 is depicted in FIG. 5B. The KD and maximum % bound for the 3 minimized constructs with the overall highest PSMA affinity, as determined by a dot blot binding assay, are listed in Table 4. For the minimized rGmH aptamers described in Table 5 below, the guanosine triphosphates are 2′-OH and the adenosines triphosphates, cytidine triphosphates and uridine triphosphates are 2′-OMe. Unless noted otherwise, the individual sequences are represented in the 5′ to 3′ orientation. In some embodiments, the invention comprises aptamers with a nucleic acid sequence as described in Table 4 below. In some embodiments, the nucleic acid sequence of an aptamer described in Table 4 below additionally comprises a 3′ cap (e.g., an inverted dT cap), and/or 5′ amine (NH2) modification to facilitate chemical coupling, and/or conjugation to a high molecular weight, non-immunogenic compound (e.g., PEG). […]
substance,measurement,setting,value
"GGAGGAfCfCGAAAAAGAfCfCfUGAfCfUfUfCfUAfUAfCfUAAGfUfCfUAfCGfUfUfCfCfUfCfCA (GGAGGACCGAAAAAGACCUGACUUCUAUACUAAGUCUACGUUCCUCCA; 2'-fluoro at 7, 8, 17, 18, 19, 22, 23, 24, 25, 26, 28, 30, 31, 35, 36, 37, 39, 41, 42, 43, 44, 45, 46, 47, other sugars and backbone not given here) [ARC591, 48-nt minimer of A9]",functional activity in the LNCaP FACS assay,[1],retained full functional activity
same,Kd,[2],3.4 nM
